target: recombinant human SYK (GST-hSYK fusion protein) (Homo sapiens, UniProt P43405); assay: biochemical; settings: Syk IC50, HTRF, recombinant human GST-SYK
Description: Homogeneous Time-Resolved Fluorescence (HTRF) Assay for the Recombinant Human SYK Enzyme:

| IC50 | SMILES |
| --- | --- |
| < 0.5 nM | Cc1cc(Nc2nccc(C(F)(F)F)n2)cc(-c2cnc(C(C)(O)c3ccc(C(=O)O)cc3)s2)c1 (centres unmarked) [4-{1-hydroxy-1-[5-(3-methyl-5-{[4-(trifluoromethyl)pyrimidin-2-yl]amino}phenyl)-1,3-thiazol-2-yl]ethyl}benzoic acid] |
| 2 nM | Cc1cc(Nc2nccc(C(F)(F)F)n2)cc(-c2cnc(C3(O)CC4(CC(C(=O)O)C4)C3)s2)c1 (centres unmarked) [6-hydroxy-6-[5-(3-methyl-5-{[4-(trifluoromethyl)pyrimidin-2-yl]amino}phenyl)-1,3-thiazol-2-yl]spiro[3.3]heptane-2-carboxylic] |

same assay, conditions: hSYK Activity, table of Example 23-1

| IC50 | SMILES |
| --- | --- |
| < 100 nM | NC(=O)[C@H]1CC[C@H](c2ncc(-c3cccc(Nc4nccc(C(F)(F)F)n4)c3)s2)CC1 [23-1] |

same assay, conditions: hSYK Activity, table of Example 28-1

| IC50 | SMILES |
| --- | --- |
| < 100 nM | CC(C)(O)c1ncc(-c2cc(Nc3nccc(C(F)(F)F)n3)cc(C(F)F)c2)s1 [28-1] |

same assay, conditions: rhSYK Activity (IC50), recombinant human GST-SYK 5 pM, ATP 25 μM, biotinylated substrate peptide 250 nM, HTRF, 10-dose titration

| SMILES | IC50 |
| --- | --- |
| Cc1cc(Nc2nccc(C(F)(F)F)n2)cc(-c2cnc(CNC(CO)C(C)O)s2)c1 (single isomer, unassigned) [Example 88A-43] | < 100 nM |
| Cc1cc(Nc2nccc(C(C)O)n2)cc(-c2cnc(C3(O)CCC(C(=O)O)C(C)(C)C3)s2)c1 (single isomer, unassigned) [Example 100A-14] | < 100 nM |
| Cc1cc(Nc2nccc(C(O)C3CC3)n2)cc(-c2cnc(C3(O)CCC(C(=O)O)C(C)(C)C3)s2)c1 (single isomer, unassigned) [Example 100A-18] | < 100 nM |
| Cc1cc(Nc2nccc(C(F)C3CC3)n2)cc(-c2cnc(C3(O)CCC(C(=O)O)C(C)(C)C3)s2)c1 (single isomer, unassigned) [Example 100A-21] | < 100 nM |
| Cc1cc(Nc2nccc(C(C)(O)C3CC3)n2)cc(-c2cnc(C3(O)CCC(C(=O)O)C(C)(C)C3)s2)c1 (single isomer, unassigned) [Example 100A-25] | < 100 nM |

The remaining lines, values ahead:

| IC50 | SMILES |
| --- | --- |
| 100 to 1000 nM | Cc1cc(Nc2nccc(C(F)(F)F)n2)cc(-c2cnc(C3(O)CCNC(=O)CC3)s2)c1Br (single isomer, unassigned) [Example 111-1] |
| < 100 nM | Cc1cc(Nc2nccc(C(F)(F)F)n2)cc(-c2cnc(C3(O)CCNC(=O)CC3)s2)c1Br (single isomer, unassigned) [Example 111-2] |

same assay, conditions: rhSYK Activity, Table 8A

| IC50 | SMILES |
| --- | --- |
| < 100 nM | Cc1cc(Nc2ncc(F)c(C)n2)cc(-c2cnc([C@]3(O)CC[C@@H](O)CC3)s2)c1 [8A-1] |
| < 100 nM | Cc1cc(Nc2ncc(Cl)c(C)n2)cc(-c2cnc([C@]3(O)CC[C@@H](O)CC3)s2)c1 [8A-2] |
| < 100 nM | COc1nc(Nc2cc(C)cc(-c3cnc([C@]4(O)CC[C@@H](O)CC4)s3)c2)ncc1F [8A-3] |
| < 100 nM | Cc1cc(Nc2ncc(F)c(C3CC3)n2)cc(-c2cnc([C@]3(O)CC[C@@H](O)CC3)s2)c1 [8A-4] |
| < 100 nM | COc1nc(Nc2cc(C)cc(-c3cnc(C4(O)CCC(O)CC4)s3)c2)ncc1Cl (centres unmarked) [8A-5] |
| < 100 nM | Cc1cc(Nc2nccc(C(F)(F)F)n2)cc(-c2cnc(C3(O)CCC(O)C(C)(C)C3)s2)c1 (centres unmarked) [8A-6] |
| < 100 nM | Cc1cc(Nc2ncc(F)c(C)n2)cc(-c2cnc(C3(O)CCC(=O)CC3)s2)c1 [8A-8] |

same assay, conditions: rhSYK Activity, Table 24

| IC50 | SMILES |
| --- | --- |
| < 100 nM | CC(O)c1ncc(-c2cc(Nc3nccc(C(F)(F)F)n3)cc(N3CCOCC3)c2)s1 (centres unmarked) [24-1] |
| < 100 nM | CC(=O)c1ncc(-c2cc(Nc3nccc(C(F)(F)F)n3)cc(N3CCOCC3)c2)s1 [24-3] |
| < 100 nM | CS(=O)(=O)N1CCN(c2cc(Nc3nccc(C(F)(F)F)n3)cc(-c3cnc(C4(O)CCC4)s3)c2)CC1 [24-4] |
| < 100 nM | CC(O)(c1ncc(-c2cc(Nc3nccc(C(F)(F)F)n3)cc(N3CCOCC3)c2)s1)C1CC1 (centres unmarked) [24-6] |
| < 100 nM | CC(O)(c1ncc(-c2cc(Nc3nccc(C(F)(F)F)n3)cc(N3CCOCC3)c2)s1)C(F)(F)F (centres unmarked) [24-7] |

same assay, conditions: rhSYK Activity, Table 26

| IC50 | SMILES |
| --- | --- |
| 100 to 1000 nM | FC(F)(F)c1ccnc(Nc2cccc(-c3cnc(C4(F)CCC4)s3)c2)n1 [26-3] |

same assay, conditions: rhSYK Activity, Table 33-A

| IC50 | SMILES |
| --- | --- |
| < 100 nM | Cc1cc(Nc2nccc(C(F)(F)F)n2)cc(-c2cnc(C3(O)CCC(C(=O)O)C(C)(C)C3C)s2)c1 (single isomer, unassigned) [Example 33A-77] |

same assay, conditions: rhSYK Activity, Table 33B

| IC50 | SMILES |
| --- | --- |
| < 100 nM | Cc1cc(Nc2nccc(C(F)(F)F)n2)cc(-c2cnc(C3(O)CCC(CC(=O)O)C3)s2)c1 (single isomer, unassigned) [Example 33B-25] |

same assay, conditions: rhSYK Activity, Table 33D

| IC50 | SMILES |
| --- | --- |
| < 100 nM | Cc1cc(Nc2nccc(C(F)(F)F)n2)cc(-c2cnc(C(C)(O)CCC(C)(C)C(=O)O)s2)c1 (single isomer, unassigned) [Example 33D-3] |
| < 100 nM | Cc1cc(Nc2nccc(C(F)(F)F)n2)cc(-c2cnc(C(C)(O)c3ccc(C(=O)O)s3)s2)c1 (single isomer, unassigned) [Example 33D-21] |

same assay, conditions: rhSYK Activity, Table 46

| IC50 | SMILES |
| --- | --- |
| < 100 nM | Cc1cc(Nc2nccc(C(F)(F)F)n2)cc(-c2cnc(C3(O)CCNC(C(F)(F)F)C3)s2)c1 (centres unmarked) [46-1] |
| < 100 nM | COC(=O)C1CC(O)(c2ncc(-c3cc(C)cc(Nc4nccc(C(F)(F)F)n4)c3)s2)CCN1 (centres unmarked) [46-2] |

same assay, conditions: rhSYK Activity, Table 54B

| SMILES | IC50 |
| --- | --- |
| Cc1cc(Nc2nccc(C(F)(F)F)n2)cc(-c2cnc(C3(O)CCN(S(=O)(=O)NC(=O)OC(C)(C)C)C3)s2)c1 (centres unmarked) [54B-9] | < 100 nM |
| COc1ccnc(Nc2cc(C)cc(-c3cnc(C4(O)CCN(C(N)=O)C4)s3)c2)n1 (centres unmarked) [54B-10] | < 100 nM |
| COc1ccnc(Nc2cc(C)cc(-c3cnc(C4(O)CCNC4)s3)c2)n1 (centres unmarked) [54B-11] | < 100 nM |
| Cc1cc(Nc2nccc(C)n2)cc(-c2cnc(C3(O)CCNC3)s2)c1 (centres unmarked) [54B-12] | < 100 nM |
| Cc1cc(Nc2nccc(C)n2)cc(-c2cnc(C3(O)CCN(C(N)=O)C3)s2)c1 (centres unmarked) [54B-13] | < 100 nM |

Results, then the compound that gave them:

| IC50 | SMILES |
| --- | --- |
| < 100 nM | Cc1cc(Nc2nccc(C(F)(F)F)n2)cc(-c2cnc(C3(O)CCN(C(N)=O)C3)s2)c1 (centres unmarked) [54B-2] |
| 100 to 1000 nM | Cc1cc(Nc2nccc(C(F)(F)F)n2)cc(-c2cnc(C3(O)CCN(C(=O)OC(C)(C)C)C3)s2)c1 (centres unmarked) [54B-4] |
| < 100 nM | Cc1cc(Nc2nccc(C(F)(F)F)n2)cc(-c2cnc(C3(O)CCNC3)s2)c1 (centres unmarked) [54B-5] |
| < 100 nM | Cc1cc(Nc2nccc(C(F)(F)F)n2)cc(-c2cnc(C3(O)CCN(S(N)(=O)=O)C3)s2)c1 (centres unmarked) [54B-6] |
| < 100 nM | Cc1cc(Nc2nccc(C(F)(F)F)n2)cc(-c2cnc(C3(O)CCN(CCO)C3)s2)c1 (centres unmarked) [54B-19] |

same assay, conditions: rhSYK Activity, Table 54D

| IC50 | SMILES |
| --- | --- |
| < 100 nM | Cc1cc(Nc2nccc(C(F)(F)F)n2)cc(-c2cnc(C3(O)CCCN(C(=O)CC(N)=O)CC3)s2)c1 (single isomer, unassigned) [Example 54D-20] |
| < 100 nM | Cc1cc(Nc2nccc(C(F)(F)F)n2)cc(-c2cnc(C3(O)CCCN(C(=O)CC(=O)O)CC3)s2)c1 (single isomer, unassigned) [Example 54D-25] |
| < 100 nM | Cc1cc(Nc2nccc(C(F)(F)F)n2)cc(-c2cnc(C3(O)CCCN(C(=O)C(O)CO)CC3)s2)c1 (single isomer, unassigned) [Example 54D-28] |
| < 100 nM | Cc1cc(Nc2nccc(C(F)(F)F)n2)cc(-c2cnc(C3(O)CCCN(C(=O)c4cnn[nH]4)CC3)s2)c1 (single isomer, unassigned) [Example 54D-36] |
| < 100 nM | Cc1cc(Nc2nccc(C(F)(F)F)n2)cc(-c2cnc(C3(O)CCCN(C(=O)c4cnon4)CC3)s2)c1 (single isomer, unassigned) [Example 54D-38] |
| < 100 nM | Cc1cc(Nc2nccc(C(F)(F)F)n2)cc(-c2cnc(C3(O)CCCN(C(=O)CCC(N)=O)CC3)s2)c1 (single isomer, unassigned) [Example 54D-41] |
| < 100 nM | Cc1cc(Nc2nccc(C(F)(F)F)n2)cc(-c2cnc(C3(O)CCCN(C(=O)c4cnnn4C)CC3)s2)c1 (single isomer, unassigned) [Example 54D-50] |
| < 100 nM | Cc1cc(Nc2nccc(C(F)(F)F)n2)cc(-c2cnc(C3(O)CCCN(C(=O)Cn4ccnn4)CC3)s2)c1 (single isomer, unassigned) [Example 54D-52] |
| < 100 nM | Cc1cc(Nc2nccc(C(F)(F)F)n2)cc(-c2cnc(C3(O)CCCN(C(=O)c4nnnn4C)CC3)s2)c1 (single isomer, unassigned) [Example 54D-57] |
| < 100 nM | Cc1cc(Nc2nccc(C(F)(F)F)n2)cc(-c2cnc(C3(O)CCCN(C(=O)Cc4nnn[nH]4)CC3)s2)c1 (single isomer, unassigned) [Example 54D-59] |
| < 100 nM | CCOC(=O)CC(=O)N1CCCC(O)(c2ncc(-c3cc(C)cc(Nc4nccc(C(F)(F)F)n4)c3)s2)CC1 (single isomer, unassigned) [Example 54D-75] |
| < 100 nM | Cc1cc(Nc2nccc(C(F)(F)F)n2)cc(-c2cnc(C3(O)CCCN(C(=O)C(C)(CO)CO)CC3)s2)c1 (single isomer, unassigned) [Example 54D-79] |
| < 100 nM | Cc1cc(Nc2nccc(C(F)(F)F)n2)cc(-c2cnc(C3(O)CCCN(C(=O)c4[nH]nnc4Cl)CC3)s2)c1 (single isomer, unassigned) [Example 54D-100] |
| < 100 nM | Cc1cc(Nc2nccc(C(F)(F)F)n2)cc(-c2cnc(C3(O)CCCN(C(=O)c4nn[nH]c4C(F)(F)F)CC3)s2)c1 (single isomer, unassigned) [Example 54D-107] |
| < 100 nM | Cc1cc(Nc2nccc(C(F)(F)F)n2)cc(-c2cnc(C3(O)CCCN(C(=O)c4n[nH]c(C(F)(F)F)n4)CC3)s2)c1 (single isomer, unassigned) [Example 54D-109] |
| < 100 nM | Cc1cc(Nc2nccc(C(F)(F)F)n2)cc(-c2cnc(C3(O)CCCN(S(N)(=O)=O)CC3)s2)c1 (single isomer, unassigned) [Example 54D-116] |
| < 100 nM | Cc1cc(Nc2nccc(C(F)(F)F)n2)cc(-c2cnc(C3(O)CCCN(C(N)=O)CC3)s2)c1 (single isomer, unassigned) [Example 54D-119] |
| < 100 nM | Cc1cc(Nc2nccc(C(F)(F)F)n2)cc(-c2cnc(C3(O)CCCN(C(=O)CO)CC3)s2)c1 (single isomer, unassigned) [Example 54D-122] |
| < 100 nM | Cc1cc(Nc2nccc(C(F)(F)F)n2)cc(-c2cnc(C3(O)CCCN(C(=O)c4nc[nH]n4)CC3)s2)c1 (single isomer, unassigned) [Example 54D-124] |
